Values of other authors in patent US20090131263A1, “Normalization methods for G-protein coupled receptor membrane array” (priority 2007, published 2009).

Assays:
[1] = molecular target: Gs (Homo sapiens, UniProt P63092); details: unactivated form of G protein Gs, reconstituted vesicle systems
[2] = molecular target: Gi1 (Homo sapiens, UniProt P63096); details: unactivated form of G protein Gi1, reconstituted vesicle systems
[3] = molecular target: Gi2 (Homo sapiens, UniProt P04899); details: unactivated form of G protein Gi2, reconstituted vesicle systems
Chain of Gi2 (P04899 whole entry): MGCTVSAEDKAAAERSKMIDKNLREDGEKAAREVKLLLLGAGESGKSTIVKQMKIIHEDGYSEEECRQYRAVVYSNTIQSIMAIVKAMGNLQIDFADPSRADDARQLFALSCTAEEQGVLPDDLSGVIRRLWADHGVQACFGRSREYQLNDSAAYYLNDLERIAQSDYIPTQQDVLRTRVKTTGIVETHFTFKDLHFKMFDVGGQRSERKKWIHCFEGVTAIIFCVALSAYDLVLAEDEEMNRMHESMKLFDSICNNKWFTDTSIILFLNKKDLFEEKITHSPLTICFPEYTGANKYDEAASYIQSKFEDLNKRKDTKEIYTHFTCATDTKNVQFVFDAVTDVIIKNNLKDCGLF

[4] = molecular target: Go (Homo sapiens, UniProt P09471); details: unactivated form of G protein Go, reconstituted vesicle systems
Chain of Go (P09471 whole entry): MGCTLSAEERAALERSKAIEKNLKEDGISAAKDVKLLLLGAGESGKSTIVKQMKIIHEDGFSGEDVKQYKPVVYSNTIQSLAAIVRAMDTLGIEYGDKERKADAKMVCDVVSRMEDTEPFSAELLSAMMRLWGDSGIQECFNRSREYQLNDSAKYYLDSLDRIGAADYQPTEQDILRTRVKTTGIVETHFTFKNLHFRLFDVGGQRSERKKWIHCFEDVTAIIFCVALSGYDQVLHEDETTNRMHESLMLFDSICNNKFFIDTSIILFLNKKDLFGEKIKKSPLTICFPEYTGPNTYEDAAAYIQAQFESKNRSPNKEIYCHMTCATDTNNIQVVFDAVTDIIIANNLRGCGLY

Chain of Gi1 (P63096 whole entry): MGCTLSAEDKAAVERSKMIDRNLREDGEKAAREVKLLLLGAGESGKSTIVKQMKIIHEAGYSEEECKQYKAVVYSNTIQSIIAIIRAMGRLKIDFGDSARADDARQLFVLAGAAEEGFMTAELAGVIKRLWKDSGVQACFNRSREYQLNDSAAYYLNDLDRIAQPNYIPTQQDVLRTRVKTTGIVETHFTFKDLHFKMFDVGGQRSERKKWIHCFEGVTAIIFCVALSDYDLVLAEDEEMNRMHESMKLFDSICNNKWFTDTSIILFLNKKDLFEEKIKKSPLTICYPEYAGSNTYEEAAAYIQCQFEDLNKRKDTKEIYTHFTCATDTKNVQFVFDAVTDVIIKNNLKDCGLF
Chain of Gs (P63092 whole entry): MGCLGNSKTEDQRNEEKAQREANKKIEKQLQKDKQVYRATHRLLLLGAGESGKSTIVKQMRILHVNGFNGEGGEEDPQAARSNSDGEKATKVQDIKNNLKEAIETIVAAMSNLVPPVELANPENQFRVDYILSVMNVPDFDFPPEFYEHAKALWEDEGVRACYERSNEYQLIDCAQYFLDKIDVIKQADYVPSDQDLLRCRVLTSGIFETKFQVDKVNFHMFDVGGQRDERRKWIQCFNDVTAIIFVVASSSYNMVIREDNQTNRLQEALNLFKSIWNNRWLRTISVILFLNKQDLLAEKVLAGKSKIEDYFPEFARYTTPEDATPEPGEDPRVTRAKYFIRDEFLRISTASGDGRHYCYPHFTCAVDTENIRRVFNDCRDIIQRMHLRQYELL

Kd [1]: 70 nM
Kd [2]: 150 nM
Kd [3]: 300 nM
Kd [4]: 6 nM
Substance: BODIPY-FL-GTPγS
